ChEMBL document CHEMBL1201862, “PubChem BioAssay data set” (2004)
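In this assay, cells in 96-well plates receive the compound at five concentrations for 48 hours. Endpoints are linearly interpolated between the surrounding concentrations. GI50 = concentration required for 50% inhibition of growth.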 Active and inactive are the calls of the source. No stated cut-off is given here; in the data, active = GI50 up to about 1.1 µM and inactive = higher.

What was measured:
Assay in all cases: NCI-60 cell line screen, 48 h
[1] = system: UACC-62
[2] = system: CCRF-CEM
[3] = system: MDA-MB-231
[4] = system: DU-145
[5] = system: SR
[6] = system: M14
[7] = system: SNB-75
[8] = system: T47D
[9] = system: MDA-MB-435
[10] = system: Hs-578T
[11] = system: EKVX
[12] = system: NCI/ADR-RES
[13] = system: IGROV-1
[14] = system: OVCAR-5
[15] = system: SF-539
[16] = system: K562
[17] = system: NCI-H23
[18] = system: MOLT-4
[19] = system: OVCAR-4
[20] = system: NCI-H522

SMILES | GI50 [1] | GI50 [2] | GI50 [3] | GI50 [4] | GI50 [5] | GI50 [6] | GI50 [7] | GI50 [8] | GI50 [9] | GI50 [10] | GI50 [11] | GI50 [12] | GI50 [13] | GI50 [14] | GI50 [15] | GI50 [16] | GI50 [17] | GI50 [18] | GI50 [19] | GI50 [20]
COc1ccc(/C=N/n2c(=O)[nH]c3ccccc3c2=O)cc1 | > 100 µM (inactive) | > 100 µM (inactive) | > 100 µM (inactive) | > 100 µM (inactive) | > 100 µM (inactive) | > 100 µM (inactive) | 50.8 µM (inactive) | > 100 µM (inactive) | > 100 µM (inactive) | 36.4 µM (inactive) | 59.8 µM (inactive) | > 100 µM (inactive) | > 100 µM (inactive) | > 100 µM (inactive) | > 100 µM (inactive) | > 100 µM (inactive) | > 100 µM (inactive) | > 100 µM (inactive) | – | –
Clc1ccc(-c2cc3nc4ccccc4nc3o2)cc1 | 38.3 µM (inactive) | > 100 µM (inactive) | > 100 µM (inactive) | > 100 µM (inactive) | > 100 µM (inactive) | > 100 µM (inactive) | 15.3 µM (inactive) | > 100 µM (inactive) | > 100 µM (inactive) | 15.7 µM (inactive) | > 100 µM (inactive) | 52.5 µM (inactive) | 62.8 µM (inactive) | > 100 µM (inactive) | 53.3 µM (inactive) | > 100 µM (inactive) | > 100 µM (inactive) | > 100 µM (inactive) | > 100 µM (inactive) | –
CC(C)(C)C1=CC(O)(c2c3ccccc3c(C3(O)C=C(C(C)(C)C)C(=O)C(C(C)(C)C)=C3)c3ccccc23)C=C(C(C)(C)C)C1=O | > 100 µM (inactive) | 50.2 µM (inactive) | 27 µM (inactive) | > 100 µM (inactive) | – | > 100 µM (inactive) | 35.2 µM (inactive) | > 100 µM (inactive) | < 0.01 µM (active) | > 100 µM (inactive) | > 100 µM (inactive) | > 100 µM (inactive) | > 100 µM (inactive) | > 100 µM (inactive) | > 100 µM (inactive) | 81.8 µM (inactive) | > 100 µM (inactive) | 48.2 µM (inactive) | > 100 µM (inactive) | > 100 µM (inactive)
c1cnc(N2CCN(Cc3c[nH]c4ccccc34)CC2)nc1 | 45.4 µM (inactive) | 50.1 µM (inactive) | 37.2 µM (inactive) | 23.9 µM (inactive) | – | 45.4 µM (inactive) | 89.9 µM (inactive) | 22.6 µM (inactive) | 31 µM (inactive) | > 100 µM (inactive) | 85.3 µM (inactive) | 52.8 µM (inactive) | > 100 µM (inactive) | > 100 µM (inactive) | 25.6 µM (inactive) | 40 µM (inactive) | 93.5 µM (inactive) | 36.6 µM (inactive) | 52 µM (inactive) | > 100 µM (inactive)
Fc1ccc(C(OCCN2CCC3CCC(C2)N3C/C=C/c2cccnc2)c2ccc(F)cc2)cc1 (centres undefined) | 12.3 µM (inactive) | 4.11 µM (inactive) | 13.3 µM (inactive) | 15.8 µM (inactive) | – | 2.53 µM (inactive) | 14.2 µM (inactive) | 12.6 µM (inactive) | 11.1 µM (inactive) | 12 µM (inactive) | 12.2 µM (inactive) | 11.3 µM (inactive) | 13.3 µM (inactive) | 13.8 µM (inactive) | 11.5 µM (inactive) | – | 12.8 µM (inactive) | 2.48 µM (inactive) | 12.6 µM (inactive) | 13.6 µM (inactive)
O=c1c2c3c(sc2nc2n1N=CN(c1ccc(Cl)cc1)C2)CCCC3 | 56.8 µM (inactive) | 17 µM (inactive) | 16.7 µM (inactive) | 21.3 µM (inactive) | 15.7 µM (inactive) | > 100 µM (inactive) | 24.7 µM (inactive) | 2.21 µM (inactive) | > 100 µM (inactive) | 3.93 µM (inactive) | 93.8 µM (inactive) | 74.8 µM (inactive) | > 100 µM (inactive) | > 100 µM (inactive) | – | 19.3 µM (inactive) | > 100 µM (inactive) | 17.9 µM (inactive) | 52.6 µM (inactive) | 10.5 µM (inactive)
NS(=O)(=O)c1ccc(NCc2nc3ccccc3[nH]2)cc1 | > 100 µM (inactive) | – | > 100 µM (inactive) | > 100 µM (inactive) | – | > 100 µM (inactive) | > 100 µM (inactive) | > 100 µM (inactive) | > 100 µM (inactive) | > 100 µM (inactive) | > 100 µM (inactive) | > 100 µM (inactive) | > 100 µM (inactive) | > 100 µM (inactive) | > 100 µM (inactive) | – | > 100 µM (inactive) | – | > 100 µM (inactive) | > 100 µM (inactive)
c1ccc([P+](c2ccccc2)(c2ccccc2)C2c3ccccc3-c3ccccc32)cc1 | 1.26 µM (inactive) | 1.89 µM (inactive) | 2.52 µM (inactive) | 2.87 µM (inactive) | – | 3.14 µM (inactive) | 2.45 µM (inactive) | 2.71 µM (inactive) | 0.655 µM (active) | 2.21 µM (inactive) | – | 15.3 µM (inactive) | 1.98 µM (inactive) | 2.59 µM (inactive) | 2.75 µM (inactive) | 1.9 µM (inactive) | 1.9 µM (inactive) | 1.67 µM (inactive) | – | 2.19 µM (inactive)
COc1ccc(/C=N/n2c(-c3ccccc3)n[nH]c2=O)cc1 | > 100 µM (inactive) | > 100 µM (inactive) | > 100 µM (inactive) | > 100 µM (inactive) | – | > 100 µM (inactive) | > 100 µM (inactive) | > 100 µM (inactive) | > 100 µM (inactive) | 50.1 µM (inactive) | > 100 µM (inactive) | > 100 µM (inactive) | – | > 100 µM (inactive) | > 100 µM (inactive) | > 100 µM (inactive) | > 100 µM (inactive) | 46.9 µM (inactive) | 53.8 µM (inactive) | –
COc1ccc(N2C(=O)C3CC4=CC(=O)C[C@H]4[C@H]32)cc1 (some centres undefined) | 45.2 µM (inactive) | – | > 100 µM (inactive) | 75.9 µM (inactive) | 55.7 µM (inactive) | > 100 µM (inactive) | 93.5 µM (inactive) | > 100 µM (inactive) | 22.9 µM (inactive) | > 100 µM (inactive) | – | 44.1 µM (inactive) | – | 88.1 µM (inactive) | – | 64.9 µM (inactive) | > 100 µM (inactive) | > 100 µM (inactive) | > 100 µM (inactive) | –
CC(O)CNC(=O)Nc1c(C(F)(F)F)cc(-c2ccccc2)[nH]c1=O (centres undefined) | > 100 µM (inactive) | 13.8 µM (inactive) | > 100 µM (inactive) | > 100 µM (inactive) | – | > 100 µM (inactive) | – | > 100 µM (inactive) | > 100 µM (inactive) | > 100 µM (inactive) | > 100 µM (inactive) | > 100 µM (inactive) | > 100 µM (inactive) | > 100 µM (inactive) | – | > 100 µM (inactive) | > 100 µM (inactive) | > 100 µM (inactive) | > 100 µM (inactive) | > 100 µM (inactive)
